The melting point is the temperature of the solid-liquid transition. A word on the inhibition: it is the drop in the measured response relative to a control, in per cent. A higher inhibition goes with a response far below the control.

The results in this text go back to patent US8916555B2, “3,5-diaminopyrazole kinase inhibitors” (Axikin Pharmaceuticals, Inc., priority 2012, dated 2014).

Each structure is given as a SMILES string.

Data set [1] has as its target T1, kinase domain protein of RC kinase (Homo sapiens, UniProt Q56UN5).
T1 sequence (Q56UN5 1061-1324 limits assumed): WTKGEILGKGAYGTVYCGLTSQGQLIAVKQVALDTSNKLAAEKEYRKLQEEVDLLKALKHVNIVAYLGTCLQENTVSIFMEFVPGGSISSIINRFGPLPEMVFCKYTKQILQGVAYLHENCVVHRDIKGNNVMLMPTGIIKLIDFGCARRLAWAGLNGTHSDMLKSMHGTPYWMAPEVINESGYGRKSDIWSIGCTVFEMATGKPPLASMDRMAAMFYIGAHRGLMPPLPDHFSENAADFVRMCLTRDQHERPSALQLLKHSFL
Briefly: Enzymatic assay for kinase inhibitory activity (Crebtide substrate, LANCE readout), kinase domain protein. Format: biochemical. To be noted: test compound 1 μM, ATP 1 μM, Crebtide 50 nM. The protocol: Solutions of a test compound, Crebtide (a substrate), a kinase, and ATP were prepared using 1×MAPK Buffer (50 mM HEPES, 1 mM EGTA, […], 10 mM MgCl2, 2 mM DTT, and 0.01% Tween 20).
To each well, the test compound (1 μL) was first added (in duplicate) to reach a final concentration of 1 μM or 1×IC50 of the compound. The kinase (5 μL) was then added to each well to reach a final concentration of […] for the kinase domain or […] for the full-length domain. Each plate included a positive and negative controls in duplicate wells. Crebtide (2.5 μL) was then added to each well in duplicate to reach a final concentration of 50 nM. If the full-length kinase was used, the plates were incubated for 45 min at room temperature before proceeding further. ATP (2.5 μL) was added to each well to reach a final concentration of 1 μM for the kinase domain and 3 μM for the full-length.
After the addition of ATP, the plates were incubated for 45 min at room temperature. During the incubation, an EDTA solution (40 mM) and anti-Crebtide ([…]) were prepared. Additionally, a detection buffer stock solution was diluted ten fold before use.
After the incubation, the anti-Crebtide (5 μL) and EDTA (5 μL) were added to each well to reach their final concentrations of […] and 10 mM, respectively. The plates were allowed to develop at room temperature for 45 min. The plates were then read at 665 nm and 615 nm using Perkin Elmer Lance machine.
The biological results of inhibition of the kinase domain protein of RC kinase are summarized in Tables 2 and 3, wherein A represents at least 50% inhibition of the RC kinase activity at 1 μM; B represents no greater than 50% but at least 20% inhibition of the RC kinase activity at 1 μM; C represents no greater than 20% but at least 5% inhibition of the RC kinase activity at 1 μM; and D represents no greater than 5% inhibition of the RC kinase activity at 1 μM.
(Time-resolved FRET reads energy transfer from a long-lived donor to a nearby acceptor.)

`NC(=O)c1c(NCc2c(F)cccc2Cl)n[nH]c1NCc1ccc(O)cc1` [Compound D115] gave a melting point of 215 to 218 °C. The compound also displayed an inhibition at 1 µM in data set [1] of 5 to 20%.

As for `NC(=O)c1c(Nc2cccnc2)n[nH]c1NCc1ccc(O)cc1` [Compound D150, 5-((4-hydroxybenzyl)amino)-3-(pyridin-3-ylamino)-1H-pyrazole-4-carboxamide], the melting point was in the range of 229 to 233 °C. The compound also returned an inhibition at 1 µM in data set [1] not below 50%.

As for `NC(=O)c1c(NCc2c(F)cccc2F)n[nH]c1NCc1ccc(O)cc1` [Compound D114], the melting point was 189 to 191 °C. Besides, the inhibition at 1 µM in data set [1] was not above 5%.

`NC(=O)c1c(Nc2ccc(N3CCOCC3)c(F)c2)n[nH]c1NCc1ccc(O)cc1` [Compound D100] registered a melting point of 208 to 211 °C. Further, the inhibition at 1 µM in data set [1] is not below 50%.

Turning to `NC(=O)c1c(Nc2cccnc2)n[nH]c1NCc1ccccc1` [Compound D155, 5-(benzylamino)-3-(pyridin-3-ylamino)-1H-pyrazole-4-carboxamide], the melting point lay in the range of 228 to 231 °C. In addition, in data set [1], the inhibition at 1 µM was 5 to 20%.

In turn, `CS(=O)(=O)c1ccc(CNc2n[nH]c(NCc3ccc(O)cc3)c2C(N)=O)cc1` [Compound D113, 5-((4-hydroxybenzyl)amino)-3-((4-(methylsulfonyl)benzyl)amino)-1H-pyrazole-4-carboxamide] came in with a melting point of 263 to 267 °C. Further, the inhibition at 1 µM in data set [1] lay within 5 to 20%.

For the compound `CC1CCN(C2CCN(c3ccc(Nc4n[nH]c(NCc5ccc(O)cc5)c4C(N)=O)cn3)CC2)CC1` [Compound D119], the melting point lay within 203 to 206 °C. This compound yielded an inhibition at 1 µM in data set [1] not below 50%.

In turn, `NC(=O)c1c(Nc2ccc(-c3cnco3)cc2)n[nH]c1NCc1ccc(O)cc1` [Compound D111] returned a melting point of 258 to 266 °C. For the same compound, in data set [1], the inhibition at 1 µM was not below 50%.

The compound `NC(=O)c1c(NCc2ccc(Cl)c(F)c2)n[nH]c1NCc1ccc(O)cc1` [Compound D122] registered a melting point of 204 to 207 °C. This compound came in with an inhibition at 1 µM in data set [1] of 5 to 20%.

For `N#Cc1c(Nc2cccc(Cl)c2)n[nH]c1NCc1ccc(Oc2ccc(C(F)(F)F)cn2)cc1` [Compound C32, 3-((3-chlorophenyl)amino)-5-((4-((5-(trifluoromethyl)pyridin-2-yl)oxy)benzyl)amino)-1H-pyrazole-4-carbonitrile], the melting point was 184 to 194 °C. The “Activity (inhibition of the RC kinase activity at 1 μM)” value in data set [1] is listed as “C (no greater than 20% but at least 5% inhibition of the RC kinase activity at 1 μM)”.

For the compound `COc1cccc(Nc2n[nH]c(NCc3ccc(O)cc3)c2C(N)=O)c1` [Compound D65, 5-((4-hydroxybenzyl)amino)-3-((3-methoxyphenyl)amino)-1H-pyrazole-4-carboxamide], the melting point is 177 to 180 °C. The inhibition at 1 µM in data set [1] is not below 50%.

`NC(=O)c1c(Nc2ccc(C(=O)O)cc2)n[nH]c1NCc1ccc(O)cc1` [Compound D165, 4-((4-carbamoyl-5-((4-hydroxybenzyl)amino)-1H-pyrazol-3-yl)amino)benzoic acid] showed a melting point of 285 to 290 °C. Moreover, the inhibition at 1 µM in data set [1] was not below 50%.

Compound `COc1cc(CNc2[nH]nc(Nc3cccnc3)c2C(N)=O)ccc1F` [Compound D40, 5-((4-fluoro-3-methoxybenzyl)amino)-3-(pyridin-3-ylamino)-1H-pyrazole-4-carboxamide] yielded a melting point of 226 to 229 °C. This compound also came in with an inhibition at 1 µM in data set [1] of 20 to 50%.

The compound `NC(=O)c1c(Nc2ccc(N3CCC(N4CCCC4)CC3)cc2)n[nH]c1NCc1ccc(O)cc1` [Compound D121] displayed a melting point of 241 to 244 °C. This compound also came in with an inhibition at 1 µM in data set [1] not below 50%.

As to `NC(=O)c1c(Nc2ccc(-c3ccccn3)cc2)n[nH]c1NCc1ccc(O)cc1` [Compound D109], the melting point was in the range of 217 to 221 °C. The inhibition at 1 µM in data set [1] is not below 50%.

With `NC(=O)c1c(Nc2ccc(N3CCN(c4ncccn4)CC3)cc2)n[nH]c1NCc1ccc(O)cc1` [Compound D124], the melting point was in the range of 219 to 227 °C. This compound also returned an inhibition at 1 µM in data set [1] not below 50%.

`NC(=O)c1c(Nc2cccnc2)n[nH]c1NCc1cccc(O)c1` [Compound D38, 5-((3-hydroxybenzyl)amino)-3-(pyridin-3-ylamino)-1H-pyrazole-4-carboxamide] gave a melting point of 208 to 212 °C. Further, the inhibition at 1 µM in data set [1] is not below 50%.

For the compound `NC(=O)c1c(Nc2cccc(Cl)c2)n[nH]c1NCc1ccc(Oc2ccc(C(F)(F)F)cn2)cc1` [Compound D33, 3-((3-chlorophenyl)amino)-5-((4-((5-(trifluoromethyl)pyridin-2-yl)oxy)benzyl)amino)-1H-pyrazole-4-carboxamide], the melting point was in the range of 205 to 211 °C. The same compound showed an inhibition at 1 µM in data set [1] of 5 to 20%.

Compound `NC(=O)c1c(Nc2ccc(S(N)(=O)=O)cc2)n[nH]c1NCc1ccc(O)cc1` [Compound D107, 5-((4-hydroxybenzyl)amino)-3-((4-sulfamoylphenyl)amino)-1H-pyrazole-4-carboxamide] returned a melting point of 270 to 275 °C. In data set [1], this compound showed an inhibition at 1 µM not below 50%.

The compound `N#Cc1c(Nc2cccc(Cl)c2)n[nH]c1NCc1ccc(Oc2ccc(C(F)(F)F)cn2)cc1` [Compound C2] gave a melting point of 62 to 72 °C. In addition, the “Activity (inhibition of the RC kinase activity at 1 μM)” value in data set [1] is recorded as “B (no greater than 50% but at least 20% inhibition of the RC kinase activity at 1 μM)”.

The compound `NC(=O)c1c(Nc2ccc(-c3ccccc3)cc2)n[nH]c1NCc1ccc(O)cc1` [Compound D161, 3-([1,1′-biphenyl]-4-ylamino)-5-((4-hydroxybenzyl)amino)-1H-pyrazole-4-carboxamide] gave a melting point of 206 to 210 °C. In data set [1], this compound had an inhibition at 1 µM not below 50%.

For `NC(=O)c1c(Nc2ccc(C(F)(F)F)nc2)n[nH]c1NCc1ccc(O)cc1` [Compound D91], the melting point lay in the range of 259 to 265 °C. In data set [1], this compound gave an inhibition at 1 µM not below 50%.

Compound `COc1ccccc1CNc1[nH]nc(Nc2cccc(Cl)c2)c1C(N)=O` [Compound D157, 3-((3-chlorophenyl)amino)-5-((2-methoxybenzyl)amino)-1H-pyrazole-4-carboxamide] came in with a melting point of 225 to 227 °C. In data set [1], the inhibition at 1 µM lay in the range of 5 to 20%.

`CC(C)c1ccc(Nc2n[nH]c(NCc3ccc(O)cc3)c2C(N)=O)cc1` [Compound D137, 5-((4-hydroxybenzyl)amino)-3-((4-isopropylphenyl)amino)-1H-pyrazole-4-carboxamide] yielded a melting point of 200 to 204 °C. Moreover, in data set [1], the inhibition at 1 µM fell in the range of 20 to 50%.

`CC(C)N1CCN(c2ccc(Nc3n[nH]c(NCc4ccc(O)cc4)c3C(N)=O)cc2)CC1` [Compound D82, 5-((4-hydroxybenzyl)amino)-3-((4-(4-isopropylpiperazin-1-yl)phenyl)amino)-1H-pyrazole-4-carboxamide] came in with a melting point of 210 to 220 °C. Moreover, the inhibition at 1 µM in data set [1] is not below 50%.

As to `NC(=O)c1c(Nc2ccc(N3CCN(C(=O)N4CCCCC4)CC3)cc2)n[nH]c1NCc1ccc(O)cc1` [Compound D110, 5-((4-hydroxybenzyl)amino)-3-((4-(4-(piperidine-1-carbonyl)piperazin-1-yl)phenyl)amino)-1H-pyrazole-4-carboxamide], the melting point was in the range of 236 to 240 °C. In addition, the inhibition at 1 µM in data set [1] was not below 50%.

`Cc1ccc(Nc2n[nH]c(NCc3ccc(O)cc3)c2C(N)=O)cc1` [Compound D61, 5-((4-hydroxybenzyl)amino)-3-(p-tolylamino)-1H-pyrazole-4-carboxamide] had a melting point of 169 to 174 °C. The compound further showed an inhibition at 1 µM in data set [1] not below 50%.

As for `COc1cccc(CNc2[nH]nc(Nc3cccnc3)c2C(N)=O)c1` [Compound D152], the melting point was in the range of 226 to 230 °C. Besides, the inhibition at 1 µM in data set [1] fell in the range of 20 to 50%.

`NC(=O)c1c(Nc2ccc(N3CCOCC3)c(Cl)c2)n[nH]c1NCc1ccc(O)cc1` [Compound D75, 3-((3-chloro-4-morpholinophenyl)amino)-5-((4-hydroxybenzyl)amino)-1H-pyrazole-4-carboxamide] yielded a melting point of 162 to 168 °C. The compound further returned an inhibition at 1 µM in data set [1] not below 50%.

Consider `NC(=O)c1c(Nc2cccc(Cl)c2)n[nH]c1NCc1ccoc1` [Compound D97], for which the melting point lay in the range of 219 to 221 °C. In data set [1], the inhibition at 1 µM lay within 5 to 20%.

In turn, `COc1cc(OC)c(OC)cc1CNc1[nH]nc(Nc2cccc(Cl)c2)c1C(N)=O` [Compound D58] registered an inhibition at 1 µM in data set [1] of 5 to 20%.
